# Experiments:
# [1] = molecular target: T1, binding of DLL4 to the human Notch 2 receptor (Homo sapiens, UniProt Q04721); assay: FACS blocking of hDLL4 ECD-Fc binding to human Notch2 on HEK-293 cells; details: HEK-293 stably overexpressing human Notch2
# T1 construct: expressed in transfected cells; host or cells: HEK-293, stably overexpressing human Notch2
# Protocol: In addition, the 59R1 IgG2 antibody was assayed for its ability to block binding of DLL4 to the human Notch 2 receptor by FACS analysis. HEK-293 cells stably overexpressing human Notch2 were incubated with the antibody at various concentration and then detected for hNotch2 binding (FIG. 1C) by PE-conjugated goat anti-human Fc gamma specific antibody, or ligand blocking activity (FIG. 1D). Ligand blocking was determined by incubating the cells with human DLL4 ECD tagged with the rabbit Fc constant region and the 59R1 antibody at a range of concentrations, and then detecting the hDLL4 by PE-conjugated donkey anti-rabbit antibody. Binding of hNotch2 and ligand blocking activity were thus confirmed for the 59R1 IgG2 antibody.
# [2] = test system: stroma of Colo205 tumors; assay: Microarray gene expression in stroma of treated xenograft tumors, Colo205; assay type: in vivo, mice; details: 59R1 vs control
# Protocol: Gene expression levels in various xenograft tumor models treated with the 59R1 IgG2 antibody were analyzed by microarray analysis. Global gene expression profiling analysis was performed on Affymetrix HG-U133 plus 2.0 microarray (Affymetrix, Santa Clara, Calif.). Three independent RNA samples of xenograft whole tumors from the control and treatment groups were isolated and hybridized to the microarrays according to the manufacturer's instructions. Scanned array background adjustment and signal intensity normalization were performed with GCRMA algorithm in the open-source bioconductor software (www.bioconductor.org). The expression level of each gene was normalized by z-score transformation across the samples in the control (CTRL) and treatment (59R1) groups.
# [3] = test system: breast tumor xenograft line UM-T1; assay: UM-T1 breast tumor xenograft growth; assay type: in vivo, NOD/SCID mice
# Protocol: The 59R1 IgG2 antibody was also tested in vivo in the breast tumor xenograft lines OMP-B34, OMP-B39, OMP-B44, PE13, and UM-T1, the pancreas tumor xenograft line OMP-PN8, and the colon tumor xenograft line OMP-C8. These tumor xenograft lines were established by adhering to procedures described in Al-Hajj et al., 2003, Proc. Natl. Acad. Sci. USA, 100:3983-3988. Female NOD/SCID immuno-compromised mice 7-10 weeks old were used for the establishment of the breast tumor xenografts and male NOD/SCID mice were used for the OMP-Pn8 and OMP-C8 tumor-models (Harlan, Indianapolis, Ind.). The 59R1 IgG2 antibody was also tested in vivo in a Colo-205 colon tumor xenograft model. Female immunodeficient bg/nu XID mice on a Swiss CD-1 background were used for the Colo-205 xenograft tumor model. In case of the breast cancer models, slow-releasing estrogen pellets (0.36 mg) had to be implanted. Mice were subcutaneously injected on the right flank with 50,000 (OMP-B34, OMP-B39, OMP-B44, PE13, and UM-T1) or 1×10^7 (Colo-205) viable cells, respectively, in a mixture of PBS (without magnesium or calcium) and Matrigel at a 1:1 ratio. […] Antibodies were administered weekly and tumors measured twice weekly. […] Tumor volume was calculated as described Al-Hajj et al. (2003). Data are expressed as the mean and the mean±S.E.M. Group means were compared using Student's two-tailed, unpaired t-test. […]
# [4] = molecular target: T2, human Notch3 (Homo sapiens, UniProt Q9UM47); assay: FACS binding to transiently transfected HEK-293 cells, human Notch3; parameters: expressed in transfected cells
# Protocol: The ability of the 59R1 IgG2 antibody to cross-react with other Notch receptors was determined by FACS assay using HEK-293 cells transiently transfected with the human Notch1, Notch2, Notch3 or Notch4 expression plasmid and green fluorescent protein (GFP) as a transfection control. GFP positive cells indicated expression of the transgene. The 59R1 IgG2 was added to the cells at 2 μg/ml and detected by PE-conjugated goat anti-human Fc gamma specific (Jackson Immunochemicals). All Notch constructs were full length.
# [5] = molecular target: T2, human Notch3; assay: DLL4-Fc induced receptor activation in transfected PC3 cells, human Notch3; assay type: cell-based; parameters: expressed in transfected cells; host or cells: PC3 tumor cells, transient; details: immobilized DLL4-Fc
# Protocol: (§1) 59R5 was determined to have similar activity in blocking Notch2 and Notch3 signaling as 59R1. Receptor activation was determined in luciferase-based assays. PC3 tumor cells were transiently transfected with a human or mouse Notch receptor (human Notch2, murine Notch2, human Notch3, or murine Notch3) and […] inducible reporter construct. Transfected cells were incubated with different concentrations of 59R1 or 59R5 antibody in the presence of passively immobilized DLL4-Fc protein. Notch receptor activation was determined by measuring luciferase activity.
# [6] = test system: murine Notch3; assay: DLL4-Fc induced receptor activation in transfected PC3 cells, murine Notch3; assay type: cell-based, mouse; details: immobilized DLL4-Fc
# Protocol: as §1
# T2 sequence (Q9UM47 40-2321): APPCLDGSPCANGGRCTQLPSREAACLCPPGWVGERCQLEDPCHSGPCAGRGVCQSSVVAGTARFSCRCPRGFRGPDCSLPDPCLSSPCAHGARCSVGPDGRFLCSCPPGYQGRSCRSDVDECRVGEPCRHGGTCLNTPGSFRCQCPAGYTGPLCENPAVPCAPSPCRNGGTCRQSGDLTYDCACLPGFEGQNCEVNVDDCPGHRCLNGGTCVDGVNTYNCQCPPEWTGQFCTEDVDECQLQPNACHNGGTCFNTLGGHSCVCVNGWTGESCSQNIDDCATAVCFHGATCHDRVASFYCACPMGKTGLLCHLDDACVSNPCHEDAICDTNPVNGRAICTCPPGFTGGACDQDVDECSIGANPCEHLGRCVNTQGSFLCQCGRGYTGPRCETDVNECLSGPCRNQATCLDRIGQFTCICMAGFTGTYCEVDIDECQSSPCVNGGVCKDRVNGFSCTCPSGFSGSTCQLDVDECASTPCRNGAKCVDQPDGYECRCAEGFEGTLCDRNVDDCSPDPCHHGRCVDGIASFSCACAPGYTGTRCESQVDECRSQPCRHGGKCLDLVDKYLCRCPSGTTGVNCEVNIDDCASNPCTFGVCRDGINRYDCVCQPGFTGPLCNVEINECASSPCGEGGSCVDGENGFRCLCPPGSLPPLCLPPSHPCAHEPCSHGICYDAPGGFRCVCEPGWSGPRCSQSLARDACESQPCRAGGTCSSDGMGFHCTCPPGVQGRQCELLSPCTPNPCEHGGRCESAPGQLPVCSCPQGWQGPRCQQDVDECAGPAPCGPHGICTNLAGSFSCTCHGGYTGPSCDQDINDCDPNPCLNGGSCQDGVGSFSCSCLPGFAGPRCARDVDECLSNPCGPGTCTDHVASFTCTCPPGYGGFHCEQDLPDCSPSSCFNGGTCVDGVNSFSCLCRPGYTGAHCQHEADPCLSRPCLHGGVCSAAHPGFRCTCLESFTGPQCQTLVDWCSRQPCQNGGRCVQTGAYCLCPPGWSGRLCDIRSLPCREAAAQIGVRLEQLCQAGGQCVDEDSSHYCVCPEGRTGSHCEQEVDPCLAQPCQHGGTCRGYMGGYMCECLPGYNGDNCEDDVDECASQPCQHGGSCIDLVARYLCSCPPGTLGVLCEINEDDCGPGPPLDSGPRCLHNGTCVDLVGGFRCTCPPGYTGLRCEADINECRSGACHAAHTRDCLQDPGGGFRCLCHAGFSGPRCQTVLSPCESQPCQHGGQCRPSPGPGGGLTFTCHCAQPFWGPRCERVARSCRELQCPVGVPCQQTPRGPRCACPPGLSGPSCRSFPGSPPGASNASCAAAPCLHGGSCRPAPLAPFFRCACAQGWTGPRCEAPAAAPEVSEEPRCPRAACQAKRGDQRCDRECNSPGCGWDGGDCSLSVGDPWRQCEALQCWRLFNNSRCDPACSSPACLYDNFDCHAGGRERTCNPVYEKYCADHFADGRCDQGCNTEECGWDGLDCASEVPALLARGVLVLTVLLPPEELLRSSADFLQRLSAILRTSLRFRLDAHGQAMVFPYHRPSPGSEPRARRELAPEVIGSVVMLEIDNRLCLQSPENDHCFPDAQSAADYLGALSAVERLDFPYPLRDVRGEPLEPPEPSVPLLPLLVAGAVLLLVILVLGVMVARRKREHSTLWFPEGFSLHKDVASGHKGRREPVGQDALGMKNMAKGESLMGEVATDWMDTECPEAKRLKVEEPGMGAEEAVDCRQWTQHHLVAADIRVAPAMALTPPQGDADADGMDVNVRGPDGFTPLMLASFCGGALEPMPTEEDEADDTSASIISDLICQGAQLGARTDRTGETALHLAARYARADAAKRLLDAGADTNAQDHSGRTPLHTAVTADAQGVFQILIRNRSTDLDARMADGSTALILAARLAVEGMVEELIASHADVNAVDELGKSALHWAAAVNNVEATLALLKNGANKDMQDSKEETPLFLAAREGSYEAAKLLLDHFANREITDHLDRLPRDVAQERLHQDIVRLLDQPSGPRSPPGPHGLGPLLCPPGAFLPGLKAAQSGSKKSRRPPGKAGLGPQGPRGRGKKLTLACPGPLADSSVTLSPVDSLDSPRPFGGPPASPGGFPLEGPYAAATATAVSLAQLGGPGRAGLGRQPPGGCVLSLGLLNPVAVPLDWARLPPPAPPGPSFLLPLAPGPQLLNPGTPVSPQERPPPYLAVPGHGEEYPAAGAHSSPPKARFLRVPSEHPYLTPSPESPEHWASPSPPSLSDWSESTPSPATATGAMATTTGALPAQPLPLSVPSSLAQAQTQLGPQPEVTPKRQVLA
# T1 sequence (Q04721 26-2471): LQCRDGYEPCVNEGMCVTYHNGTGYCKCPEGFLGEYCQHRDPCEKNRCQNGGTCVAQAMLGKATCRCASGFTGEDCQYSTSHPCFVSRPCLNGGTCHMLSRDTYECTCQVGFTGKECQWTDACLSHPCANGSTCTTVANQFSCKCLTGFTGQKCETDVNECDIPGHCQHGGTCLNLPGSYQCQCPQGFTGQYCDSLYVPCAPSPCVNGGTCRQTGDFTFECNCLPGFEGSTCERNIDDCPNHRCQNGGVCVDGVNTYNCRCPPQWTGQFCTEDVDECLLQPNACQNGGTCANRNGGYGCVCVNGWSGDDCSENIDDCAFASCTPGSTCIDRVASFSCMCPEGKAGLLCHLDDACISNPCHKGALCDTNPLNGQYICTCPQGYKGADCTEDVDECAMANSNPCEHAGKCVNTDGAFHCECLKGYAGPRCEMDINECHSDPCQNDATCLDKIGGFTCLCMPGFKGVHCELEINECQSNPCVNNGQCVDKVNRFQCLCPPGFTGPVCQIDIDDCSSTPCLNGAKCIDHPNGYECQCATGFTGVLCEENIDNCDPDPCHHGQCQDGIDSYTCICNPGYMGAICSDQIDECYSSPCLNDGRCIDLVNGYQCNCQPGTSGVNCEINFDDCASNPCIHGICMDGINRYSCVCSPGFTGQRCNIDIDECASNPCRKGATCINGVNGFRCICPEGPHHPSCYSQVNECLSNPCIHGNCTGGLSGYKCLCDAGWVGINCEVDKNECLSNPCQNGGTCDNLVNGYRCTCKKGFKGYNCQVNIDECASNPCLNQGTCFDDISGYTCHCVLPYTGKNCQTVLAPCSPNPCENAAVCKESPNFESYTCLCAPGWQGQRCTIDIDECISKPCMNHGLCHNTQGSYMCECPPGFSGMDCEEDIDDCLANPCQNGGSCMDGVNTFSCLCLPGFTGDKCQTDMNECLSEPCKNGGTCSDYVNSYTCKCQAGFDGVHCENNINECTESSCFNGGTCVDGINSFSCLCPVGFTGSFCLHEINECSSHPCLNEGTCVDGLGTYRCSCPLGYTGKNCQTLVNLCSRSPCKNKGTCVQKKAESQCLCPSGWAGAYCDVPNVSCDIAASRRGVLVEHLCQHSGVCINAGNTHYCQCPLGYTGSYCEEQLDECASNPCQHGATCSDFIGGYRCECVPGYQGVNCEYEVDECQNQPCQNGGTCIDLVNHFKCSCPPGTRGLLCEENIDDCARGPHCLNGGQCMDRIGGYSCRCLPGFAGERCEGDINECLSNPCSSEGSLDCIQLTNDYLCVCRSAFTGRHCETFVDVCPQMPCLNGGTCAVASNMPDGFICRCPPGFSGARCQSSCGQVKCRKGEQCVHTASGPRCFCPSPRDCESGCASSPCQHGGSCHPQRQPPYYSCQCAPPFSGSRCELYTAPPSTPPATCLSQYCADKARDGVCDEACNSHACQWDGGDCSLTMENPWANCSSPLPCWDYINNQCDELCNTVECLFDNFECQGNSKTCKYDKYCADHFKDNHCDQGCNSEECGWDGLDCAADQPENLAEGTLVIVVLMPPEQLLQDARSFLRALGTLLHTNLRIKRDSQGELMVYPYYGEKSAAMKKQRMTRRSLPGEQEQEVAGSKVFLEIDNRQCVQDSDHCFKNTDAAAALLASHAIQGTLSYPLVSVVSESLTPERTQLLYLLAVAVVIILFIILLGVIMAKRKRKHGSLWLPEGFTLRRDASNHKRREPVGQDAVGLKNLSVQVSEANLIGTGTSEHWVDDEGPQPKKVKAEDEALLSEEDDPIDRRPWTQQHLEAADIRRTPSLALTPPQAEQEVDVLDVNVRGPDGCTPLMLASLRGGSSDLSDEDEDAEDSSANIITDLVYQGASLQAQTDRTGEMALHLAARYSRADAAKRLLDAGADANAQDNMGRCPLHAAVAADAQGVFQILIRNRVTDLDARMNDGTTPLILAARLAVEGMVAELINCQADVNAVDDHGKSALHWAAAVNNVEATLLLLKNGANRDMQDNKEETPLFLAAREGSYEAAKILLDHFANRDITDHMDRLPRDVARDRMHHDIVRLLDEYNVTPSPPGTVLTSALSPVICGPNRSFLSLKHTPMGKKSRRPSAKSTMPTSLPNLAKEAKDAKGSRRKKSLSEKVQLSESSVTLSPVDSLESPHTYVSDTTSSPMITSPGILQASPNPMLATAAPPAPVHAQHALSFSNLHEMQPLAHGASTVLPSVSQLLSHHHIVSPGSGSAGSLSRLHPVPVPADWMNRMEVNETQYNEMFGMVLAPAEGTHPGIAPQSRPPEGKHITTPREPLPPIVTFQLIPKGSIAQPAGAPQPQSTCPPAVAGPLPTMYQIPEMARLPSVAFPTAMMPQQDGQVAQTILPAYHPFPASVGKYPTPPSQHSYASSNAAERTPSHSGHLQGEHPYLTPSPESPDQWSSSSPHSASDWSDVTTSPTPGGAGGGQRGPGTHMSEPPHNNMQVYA
substance,measurement,setting,value
59R1: human IgG2 antibody binding Notch2 and Notch3; heavy and light chain SEQ ID NO:16 and 18; ATCC PTA-9547,blocking of hDLL4 binding to human Notch2 (FACS),[1],confirmed
same,Fold 1417466_at (Rgs5),[2],−3.39
same,Fold 1417714_x_at (Hba-al/Hba-a2),[2],−8.37
same,Fold 1420872_at (Gucy1b3),[2],−1.94
same,Fold 1420942_s_at (Rgs5),[2],−5.52
same,Fold 1421964_at (Notch3),[2],−3.26
same,Fold 1434141_at (Gucy1a3),[2],−2.49
same,Fold 1451501_a_at (Ghr),[2],−1.83
same,Fold 1452590_a_at (Plac9),[2],−1.61
same,T1 breast tumor growth,[3]; in the absence of estrogen treatment,ineffective
same,T1 breast tumor growth,"[3]; in the presence of estrogen, 15 mg/kg once a week",effective at inhibiting tumor growth
same,binding to full-length human Notch3 (FACS),[4],specifically binds
59R5: human antibody that specifically binds human Notch 2 and human Notch 3; heavy and light chain SEQ ID NO:49 and 18; ATCC PTA-10170,ligand-induced activation of human Notch3 receptor signaling,[5],blocked
same,ligand-induced activation of murine Notch3 receptor signaling,[6],blocked
